The values that follow come from paper PMC2907371, “Antiviral biflavonoids from Radix Wikstroemiae (Liaogewanggen)” (Chinese Medicine, 2010).

In one series the test system is HIV-1. On the set-up: method as in PMID 10985087. The following applies: cited from earlier work.
Series [1] can be described thus: Cytotoxicity assay (MTT method). The following applies: human, concentration with half maximal inhibition on growth and survival of HEp-2 cells, mean (SD), n = 3. In kind it is cell-based. On the procedure:
(§1) Human larynx epidermoid carcinoma cell line (HEp-2, CCL-23) and RSV (long strain, VR-26) were purchased from the American Type Culture Collection (ATCC, USA). The cells were grown in Eagle's minimum essential medium (EMEM) (Gibco, USA) supplemented with 10% fetal bovine serum (FBS) (Gibco, USA), 25 μg/ml gentamicin (Sigma, USA) and […] L-glutamine (Sigma, USA) (growth medium). Virus-infected cells were maintained in EMEM with 1% FBS, 25 μg/ml gentamicin and […] L-glutamine (maintenance medium). All the cells were cultured at 37°C in a humidified atmosphere supplied with 5% CO2. Virus titers were determined by the 50% tissue culture infective dose (TCID50) method.
Cell viability was tested by the 3-(4,5-dimethylthiazol-2-yl)-2,5-diphenyl tetrazolium bromide (MTT) method as described in previous study. Briefly, 100 μl of two-fold diluted samples were added to a 96-well plate containing confluent cell monolayer in triplicates while the dilution medium without the sample was the control. After 72 hours of incubation, 12 μl of the MTT solution (5 mg/ml in phosphate buffered saline) was added to each well. The trays were further incubated for four hours for the formation of blue formazan. After the supernatant was removed, the blue formazan was solubilized in 100 μl DMSO and the optical density (OD) was measured at 570 nm with a microplate reader.

In a further series the test system is RSV (long strain, VR-26). As to the kind of experiment: CPE reduction assay, in vitro antiviral activity against RSV. In kind it is cell-based, respiratory syncytial virus. The following applies: for anti-RSV activity (in words): in vitro; for IC50: human respiratory syncytial virus, concentration that reduced 50% of CPE in respect to virus control, RSV in HEp-2 cells, mean (SD), n = 3; for SI: ratio of CC50 to IC50. On the procedure:
as §1
CPE reduction assay was adopted for screening the in vitro antiviral activity as described in the previous study. Briefly, 0.1 ml of 100 TCID50 virus suspension and serial two-fold dilutions of the tested samples were added simultaneously to confluent cell monolayers in a 96-well plate. Virus suspension and maintenance medium without samples were added as the virus control and cell control, respectively. The plates were incubated at 37°C in a humidified CO2 atmosphere for 3-5 days. The virus-induced CPE was scored against the virus control under a light microscope. Ribavirin (Sigma, USA) was used as positive control in this experiment.

The structures appear in SMILES notation.

`O=C(c1c(O)cc(O)cc1O)c1c(-c2ccc(O)cc2)oc2cc(O)c3c(c12)O[C@H](c1ccc(O)cc1)[C@@H](O)C3` [daphnodorin B]: the “activity against HIV-1 in vitro (in words)” value in the series with HIV-1 is “moderately active”.

Turning to `O=C1C=C2O[C@@H](c3ccc(O)cc3)[C@]3(O)C(=O)c4c(O)cc(O)cc4O[C@]23C2=C1C[C@H](O)[C@@H](c1ccc(O)cc1)O2` [Compound II, genkwanol B], half-maximal cytotoxicity in series [1] (CC50 at 72 h) was put at 106 µM. Further, the “anti-RSV activity (in words)” value in the series with RSV (long strain, VR-26) (CPE reduction assay) was “potent anti-RSV activity”. In the series on RSV (long strain, VR-26), the IC50 (usually the point on the concentration scale where inhibition reaches its midpoint) was found to be 9.6 µM and the SI is given as 11.0.

Regarding `O=c1c(-c2c(O)cc(O)c3c2O[C@H](c2ccc(O)cc2)[C@@H](O)C3)c(-c2ccc(O)cc2)oc2cc(O)cc(O)c12` [wikstrol B], the “activity against HIV-1 in vitro (in words)” value in the series with HIV-1 is recorded as “moderately active”.

For `O=C1c2c(O)cc(O)cc2O[C@@]12c1c(cc(O)c3c1O[C@H](c1ccc(O)cc1)[C@@H](O)C3)O[C@@H]2c1ccc(O)cc1` [genkwanol A], the “activity against HIV-1 in vitro (in words)” value in the series with HIV-1 was “moderately active”.

Turning to `COc1cc(C[C@@H]2COC(=O)[C@@]2(O)Cc2ccc(O)c(OC)c2)ccc1O` [(+)-nortrachelogenin], in the series on HIV-1, the “activity against HIV-1 in vitro (in words)” value was “moderately active”.

As for `O=C1C=C2O[C@H](c3ccc(O)cc3)[C@@]3(O)C(=O)c4c(O)cc(O)cc4O[C@@]23C2=C1C[C@H](O)[C@@H](c1ccc(O)cc1)O2` [Compound III, genkwanol C], in series [1], it took 145 µM to reach half-maximal cytotoxicity (CC50 at 72 h). Further, the “anti-RSV activity (in words)” value with RSV (long strain, VR-26) (CPE reduction assay) is “potent anti-RSV activity”. In the series on RSV (long strain, VR-26), 6.6 µM corresponded to half-maximal inhibition (IC50) and the SI came out at 21.9.

Consider `NC(=O)c1ncn([C@@H]2O[C@H](CO)[C@@H](O)[C@H]2O)n1` [Ribavirin, reference compound], for which half-maximal cytotoxicity in series [1] (CC50 at 72 h) was put at 256 µM. Further, in the series on RSV (long strain, VR-26), inhibition was half-maximal at 11.9 µM (IC50) and the SI was 21.6.

Regarding `O=C1c2c(O)cc(O)cc2O[C@H](c2ccc(O)cc2)[C@H]1[C@@H]1C(=O)c2c(O)cc(O)cc2O[C@@H]1c1ccc(O)cc1` [Compound I, neochamaejasmin B], the CC50 (usually the concentration at which the toxic effect on the cells reaches its halfway point) at 72 h in series [1] stood at 29.9 µM. Besides, the “anti-RSV activity (in words)” value is listed as “did not show anti-RSV effect” with RSV (long strain, VR-26) (CPE reduction assay) and “did not” with RSV (long strain, VR-26) (CPE reduction assay, listed as neochamaejasmin B). In the series with RSV (long strain, VR-26) (CPE reduction assay, highest concentration tested = maximal non-cytotoxic concentration), the “IC50 (symbol)” value was “-”.

As for `O=C1C=C2O[C@H](c3ccc(O)cc3)[C@@]3(O)C(=O)c4c(O)cc(O)cc4O[C@@]23C2=C1C[C@@H](O)[C@@H](c1ccc(O)cc1)O2` [Compound IV, stelleranol], the CC50 at 72 h in series [1] was determined as 162 µM. Also, in the series on RSV (long strain, VR-26) (CPE reduction assay), the “anti-RSV activity (in words)” value is recorded as “potent anti-RSV activity”. Also, in the series on RSV (long strain, VR-26), it took 10.2 µM to reach half-maximal inhibition (IC50) and the SI is given as 15.8.
